Laboratory results reported in the kinase profiling compilation of Christmann-Franck et al. (2016).
One block for each molecule: values may come before it.

Experiments:
Assay in all cases: radiometric filter-binding kinase assay
[1] = test system: AKT1 (human), P31749 [S473D]
[2] = target: CSNK1D (human) (UniProt P48730)
[3] = target: MKNK2 (human) (UniProt Q9HBH9)
[4] = target: NEK6 (human) (UniProt Q9HC98)
[5] = target: RPS6KA1 KD1 KD2 (human) (UniProt Q15418)
[6] = target: PIM1 (human) (UniProt P11309)
[7] = target: MARK1 (human) (UniProt Q9P0L2); settings: compound 10.0 µM
[8] = target: STK3 (human) (UniProt Q13188)
[9] = target: MAPK14 (human) (UniProt Q16539)
Sequence of MAPK14 (human) (Q16539 whole entry, looked up): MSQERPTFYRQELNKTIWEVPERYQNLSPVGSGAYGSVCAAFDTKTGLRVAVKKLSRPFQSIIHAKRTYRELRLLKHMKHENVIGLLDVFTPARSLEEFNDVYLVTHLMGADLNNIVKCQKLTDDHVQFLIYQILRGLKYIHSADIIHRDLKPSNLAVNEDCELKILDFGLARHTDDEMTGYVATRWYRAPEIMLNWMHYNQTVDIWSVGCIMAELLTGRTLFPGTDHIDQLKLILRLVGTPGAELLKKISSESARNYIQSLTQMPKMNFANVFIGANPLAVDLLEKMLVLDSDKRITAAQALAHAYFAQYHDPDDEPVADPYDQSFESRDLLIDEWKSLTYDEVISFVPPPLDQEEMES

[10] = target: MAPK9 (human) (UniProt P45984)
[11] = target: MAP3K11 (human) (UniProt Q16584); settings: compound 10.0 µM
[12] = target: IRAK4 (human) (UniProt Q9NWZ3)
Sequence of IRAK4 (human) (Q9NWZ3 whole entry, looked up): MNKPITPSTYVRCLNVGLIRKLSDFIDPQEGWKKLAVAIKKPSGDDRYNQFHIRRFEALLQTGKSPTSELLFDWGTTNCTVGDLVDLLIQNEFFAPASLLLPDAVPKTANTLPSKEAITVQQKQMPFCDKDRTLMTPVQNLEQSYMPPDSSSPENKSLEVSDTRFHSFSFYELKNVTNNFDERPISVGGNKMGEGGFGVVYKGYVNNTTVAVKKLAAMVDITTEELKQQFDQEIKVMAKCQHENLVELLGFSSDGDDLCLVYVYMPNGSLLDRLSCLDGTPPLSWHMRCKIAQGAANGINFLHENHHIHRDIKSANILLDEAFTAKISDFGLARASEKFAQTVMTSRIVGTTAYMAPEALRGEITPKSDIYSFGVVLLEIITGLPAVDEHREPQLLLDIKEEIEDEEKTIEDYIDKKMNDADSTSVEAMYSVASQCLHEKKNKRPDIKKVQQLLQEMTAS

[13] = target: STK11 CAB39 STRADA (human) (UniProt Q9Y376+Q7RTN6+Q15831)
[14] = target: MKNK1 (human) (UniProt Q9BUB5)
[15] = target: DYRK3 (human) (UniProt O43781)
[16] = target: MAPK8 (human) (UniProt P45983)
[17] = target: EPHB2 (human) (UniProt P29323); settings: compound 10.0 µM
[18] = target: TBK1 (human) (UniProt Q9UHD2)
[19] = target: CaMK1 (human) (UniProt Q14012)
Sequence of CaMK1 (human) (Q14012 whole entry, looked up): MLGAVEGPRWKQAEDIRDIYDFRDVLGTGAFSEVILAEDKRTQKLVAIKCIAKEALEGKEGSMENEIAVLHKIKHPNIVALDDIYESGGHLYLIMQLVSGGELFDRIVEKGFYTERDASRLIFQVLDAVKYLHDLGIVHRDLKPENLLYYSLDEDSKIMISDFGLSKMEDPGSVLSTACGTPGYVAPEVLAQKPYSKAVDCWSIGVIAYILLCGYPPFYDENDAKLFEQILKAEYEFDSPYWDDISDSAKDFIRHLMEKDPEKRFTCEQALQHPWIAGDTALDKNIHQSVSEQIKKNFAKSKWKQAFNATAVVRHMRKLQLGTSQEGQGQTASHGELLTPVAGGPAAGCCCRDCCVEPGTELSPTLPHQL

[20] = target: CHEK2 (human) (UniProt O96017)
Sequence of CHEK2 (human) (O96017 whole entry, looked up): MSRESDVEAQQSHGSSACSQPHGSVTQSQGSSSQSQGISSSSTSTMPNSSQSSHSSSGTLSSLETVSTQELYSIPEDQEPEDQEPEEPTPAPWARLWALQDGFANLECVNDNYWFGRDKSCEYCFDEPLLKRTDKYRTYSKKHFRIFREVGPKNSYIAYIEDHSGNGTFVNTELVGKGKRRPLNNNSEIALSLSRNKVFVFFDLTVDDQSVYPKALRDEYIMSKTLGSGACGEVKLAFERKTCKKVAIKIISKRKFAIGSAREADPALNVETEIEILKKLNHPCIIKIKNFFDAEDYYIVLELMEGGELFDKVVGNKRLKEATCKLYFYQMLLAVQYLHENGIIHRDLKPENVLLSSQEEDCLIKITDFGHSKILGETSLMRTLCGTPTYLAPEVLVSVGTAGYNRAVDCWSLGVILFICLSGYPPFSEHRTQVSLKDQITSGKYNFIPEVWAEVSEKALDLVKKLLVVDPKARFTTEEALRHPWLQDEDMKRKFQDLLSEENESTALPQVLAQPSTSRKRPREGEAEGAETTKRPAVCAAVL

[21] = target: TTK (human) (UniProt P33981)
[22] = target: MARK3 (human) (UniProt P27448)
Sequence of MARK3 (human) (P27448 whole entry, looked up): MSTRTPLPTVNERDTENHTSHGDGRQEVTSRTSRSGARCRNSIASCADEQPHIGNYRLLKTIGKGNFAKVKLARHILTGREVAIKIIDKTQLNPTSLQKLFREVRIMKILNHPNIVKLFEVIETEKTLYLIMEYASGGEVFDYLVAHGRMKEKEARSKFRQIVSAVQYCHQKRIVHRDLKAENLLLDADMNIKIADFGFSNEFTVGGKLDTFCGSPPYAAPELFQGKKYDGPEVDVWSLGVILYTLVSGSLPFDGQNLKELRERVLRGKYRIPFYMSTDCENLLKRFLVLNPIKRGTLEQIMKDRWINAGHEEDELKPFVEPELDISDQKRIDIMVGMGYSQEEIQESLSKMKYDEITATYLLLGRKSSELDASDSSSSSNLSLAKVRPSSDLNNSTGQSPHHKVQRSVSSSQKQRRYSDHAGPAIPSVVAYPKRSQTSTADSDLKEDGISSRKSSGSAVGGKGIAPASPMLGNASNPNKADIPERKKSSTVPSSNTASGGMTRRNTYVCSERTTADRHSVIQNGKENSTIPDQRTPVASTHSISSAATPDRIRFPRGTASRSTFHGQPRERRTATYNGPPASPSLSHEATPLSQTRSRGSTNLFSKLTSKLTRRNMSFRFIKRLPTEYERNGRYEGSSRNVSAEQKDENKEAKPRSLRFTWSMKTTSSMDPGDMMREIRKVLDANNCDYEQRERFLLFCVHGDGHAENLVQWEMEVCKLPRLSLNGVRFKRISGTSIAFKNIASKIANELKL

[23] = target: JAK2 JH1 JH2 (human) (UniProt O60674); settings: compound 10.0 µM
[24] = target: NEK2 (human) (UniProt P51955); settings: compound 10.0 µM
[25] = target: PAK4 (human) (UniProt O96013)
[26] = target: MAPK3 (human) (UniProt P27361)
[27] = test system: RPS6KB1 (human), P23443 [T412E]
Sequence of RPS6KB1 (human), P23443 [T412E] (P23443 whole entry T412E, looked up): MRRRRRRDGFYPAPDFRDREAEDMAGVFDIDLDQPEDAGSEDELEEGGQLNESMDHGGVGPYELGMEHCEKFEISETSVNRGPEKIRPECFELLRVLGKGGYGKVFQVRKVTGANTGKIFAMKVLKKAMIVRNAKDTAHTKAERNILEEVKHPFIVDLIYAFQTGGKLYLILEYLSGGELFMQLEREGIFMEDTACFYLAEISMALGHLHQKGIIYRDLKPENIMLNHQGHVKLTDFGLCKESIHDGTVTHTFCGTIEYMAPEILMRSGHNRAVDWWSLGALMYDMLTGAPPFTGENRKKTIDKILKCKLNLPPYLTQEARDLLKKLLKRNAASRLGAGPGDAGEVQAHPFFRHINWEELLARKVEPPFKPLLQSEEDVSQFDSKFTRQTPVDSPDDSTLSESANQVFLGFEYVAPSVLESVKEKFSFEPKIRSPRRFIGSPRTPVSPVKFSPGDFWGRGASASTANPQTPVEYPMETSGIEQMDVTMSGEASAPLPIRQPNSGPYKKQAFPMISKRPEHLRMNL

[28] = target: IKBKE (human) (UniProt Q14164)
[29] = target: IKBKB (human) (UniProt O14920)
[30] = target: MAP2K1 (human) (UniProt Q02750)
Sequence of MAP2K1 (human) (Q02750 whole entry, looked up): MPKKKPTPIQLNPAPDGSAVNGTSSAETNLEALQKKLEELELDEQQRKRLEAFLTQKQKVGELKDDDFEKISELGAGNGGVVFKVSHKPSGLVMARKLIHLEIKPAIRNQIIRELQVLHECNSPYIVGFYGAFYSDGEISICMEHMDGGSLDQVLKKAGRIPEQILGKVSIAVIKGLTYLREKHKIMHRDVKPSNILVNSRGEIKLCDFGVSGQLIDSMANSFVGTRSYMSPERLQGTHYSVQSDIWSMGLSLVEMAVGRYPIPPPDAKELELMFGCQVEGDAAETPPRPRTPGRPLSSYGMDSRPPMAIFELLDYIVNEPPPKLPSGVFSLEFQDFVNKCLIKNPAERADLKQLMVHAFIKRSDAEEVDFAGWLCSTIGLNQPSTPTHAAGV

[31] = target: DYRK1A (human) (UniProt Q13627)
[32] = target: NTRK1 (human) (UniProt P04629); settings: compound 10.0 µM
[33] = target: MAPKAPK2 (human) (UniProt P49137)
Sequence of MAPKAPK2 (human) (P49137 whole entry, looked up): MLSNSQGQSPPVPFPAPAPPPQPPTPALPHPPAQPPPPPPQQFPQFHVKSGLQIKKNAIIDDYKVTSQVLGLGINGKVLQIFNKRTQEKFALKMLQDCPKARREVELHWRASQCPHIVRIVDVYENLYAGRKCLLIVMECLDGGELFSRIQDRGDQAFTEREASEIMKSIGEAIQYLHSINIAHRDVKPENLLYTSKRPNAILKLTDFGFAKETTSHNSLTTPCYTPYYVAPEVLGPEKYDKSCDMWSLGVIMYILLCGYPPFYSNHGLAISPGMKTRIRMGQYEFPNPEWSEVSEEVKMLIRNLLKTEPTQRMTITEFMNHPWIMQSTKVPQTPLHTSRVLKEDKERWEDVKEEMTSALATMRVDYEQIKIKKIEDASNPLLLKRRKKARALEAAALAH

[34] = target: NUAK1 (human) (UniProt O60285)
[35] = target: MARK2 (human) (UniProt Q7KZI7)

Sequence of RPS6KA1 KD1 KD2 (human) (Q15418 whole entry, looked up): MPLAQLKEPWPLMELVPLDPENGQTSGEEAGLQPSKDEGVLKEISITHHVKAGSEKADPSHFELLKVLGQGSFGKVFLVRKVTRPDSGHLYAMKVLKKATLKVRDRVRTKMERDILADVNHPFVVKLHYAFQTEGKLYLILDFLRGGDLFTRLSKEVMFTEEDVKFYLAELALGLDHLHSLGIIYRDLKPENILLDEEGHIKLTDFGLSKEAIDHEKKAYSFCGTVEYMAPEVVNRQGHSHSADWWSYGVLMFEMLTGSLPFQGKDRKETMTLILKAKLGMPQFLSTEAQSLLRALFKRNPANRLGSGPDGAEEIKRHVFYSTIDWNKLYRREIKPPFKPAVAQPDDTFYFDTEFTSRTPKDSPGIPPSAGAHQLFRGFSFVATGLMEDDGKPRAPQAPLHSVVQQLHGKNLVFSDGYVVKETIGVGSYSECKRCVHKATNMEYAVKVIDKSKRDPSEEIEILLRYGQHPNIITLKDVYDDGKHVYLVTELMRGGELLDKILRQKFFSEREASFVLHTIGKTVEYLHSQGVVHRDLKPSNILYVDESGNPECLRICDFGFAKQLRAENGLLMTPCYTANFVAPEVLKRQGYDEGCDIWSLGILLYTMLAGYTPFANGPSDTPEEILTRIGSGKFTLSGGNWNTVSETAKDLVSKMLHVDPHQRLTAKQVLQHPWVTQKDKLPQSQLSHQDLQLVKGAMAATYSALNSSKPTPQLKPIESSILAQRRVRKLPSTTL
Sequence of CSNK1D (human) (P48730 whole entry, looked up): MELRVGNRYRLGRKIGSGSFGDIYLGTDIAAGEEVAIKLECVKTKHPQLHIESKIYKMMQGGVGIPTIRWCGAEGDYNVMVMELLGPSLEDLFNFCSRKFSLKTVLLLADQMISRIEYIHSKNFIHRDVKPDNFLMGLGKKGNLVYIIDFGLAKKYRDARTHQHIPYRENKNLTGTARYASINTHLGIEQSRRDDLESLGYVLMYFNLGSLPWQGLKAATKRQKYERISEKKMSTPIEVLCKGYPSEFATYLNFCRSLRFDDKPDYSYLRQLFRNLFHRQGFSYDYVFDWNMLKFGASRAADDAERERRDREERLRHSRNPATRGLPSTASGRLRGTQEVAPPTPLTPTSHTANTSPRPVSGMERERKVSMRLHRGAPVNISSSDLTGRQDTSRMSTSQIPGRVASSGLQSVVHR

residual activity ([1]; compound 10.0 µM): 79% | residual activity ([2]; compound 10.0 µM): 112% | residual activity ([3]; compound 10.0 µM): 89% | residual activity ([4]; compound 10.0 µM): 106% | residual activity ([5]; compound 10.0 µM): 92% | residual activity ([6]; compound 10.0 µM): 109% | residual activity [7]: 62% | residual activity ([8]; compound 10.0 µM): 122% | residual activity ([9]; compound 10.0 µM): 105% | residual activity ([10]; compound 10.0 µM): 93% | residual activity [11]: 100% | residual activity ([12]; compound 10.0 µM): 112% | residual activity ([13]; compound 10.0 µM): 134% | residual activity ([14]; compound 10.0 µM): 110% | residual activity ([15]; compound 10.0 µM): 55% | residual activity ([16]; compound 10.0 µM): 117% | residual activity [17]: 81% | residual activity ([18]; compound 10.0 µM): 100% | residual activity ([19]; compound 10.0 µM): 102% | residual activity ([20]; compound 10.0 µM): 92% | residual activity ([21]; compound 10.0 µM): 90% | residual activity ([22]; compound 10.0 µM): 84% | residual activity [23]: 17% | residual activity [24]: 125% | residual activity ([25]; compound 10.0 µM): 55% | residual activity ([26]; compound 10.0 µM): 103% | residual activity ([27]; compound 10.0 µM): 120% | residual activity ([28]; compound 10.0 µM): 156% | residual activity ([29]; compound 10.0 µM): 108% | residual activity ([30]; compound 10.0 µM): 29% | residual activity ([31]; compound 10.0 µM): 70% | residual activity [32]: 104% | residual activity ([33]; compound 10.0 µM): 78%
SMILES: CCOC(=O)c1ccc(N2NC(=O)/C(=C/c3ccc([N+](=O)[O-])o3)C2=O)cc1

residual activity ([1]; compound 1.0 µM): 112% | residual activity ([1]; compound 10.0 µM): 106% | residual activity ([2]; compound 1.0 µM): 103% | residual activity ([2]; compound 10.0 µM): 95% | residual activity ([3]; compound 1.0 µM): 76% | residual activity ([3]; compound 10.0 µM): 99% | residual activity ([4]; compound 1.0 µM): 98% | residual activity ([4]; compound 10.0 µM): 97% | residual activity ([5]; compound 1.0 µM): 129% | residual activity ([5]; compound 10.0 µM): 122% | residual activity ([6]; compound 1.0 µM): 88% | residual activity ([6]; compound 10.0 µM): 44% | residual activity ([8]; compound 1.0 µM): 94% | residual activity ([8]; compound 10.0 µM): 92% | residual activity ([9]; compound 1.0 µM): 105% | residual activity ([9]; compound 10.0 µM): 101% | residual activity ([10]; compound 1.0 µM): 128% | residual activity ([10]; compound 10.0 µM): 117% | residual activity [11]: 71% | residual activity ([12]; compound 1.0 µM): 104% | residual activity ([12]; compound 10.0 µM): 97% | residual activity ([13]; compound 1.0 µM): 124% | residual activity ([13]; compound 10.0 µM): 117% | residual activity ([14]; compound 1.0 µM): 97% | residual activity ([14]; compound 10.0 µM): 79% | residual activity ([15]; compound 1.0 µM): 89% | residual activity ([15]; compound 10.0 µM): 77% | residual activity ([16]; compound 1.0 µM): 96% | residual activity ([16]; compound 10.0 µM): 96% | residual activity ([18]; compound 1.0 µM): 111% | residual activity ([18]; compound 10.0 µM): 99% | residual activity ([19]; compound 1.0 µM): 97% | residual activity ([19]; compound 10.0 µM): 91% | residual activity ([20]; compound 1.0 µM): 108% | residual activity ([20]; compound 10.0 µM): 103% | residual activity ([34]; compound 1.0 µM): 107% | residual activity ([34]; compound 10.0 µM): 86% | residual activity ([35]; compound 1.0 µM): 108% | residual activity ([35]; compound 10.0 µM): 107% | residual activity ([21]; compound 1.0 µM): 98% | residual activity ([21]; compound 10.0 µM): 88% | residual activity ([22]; compound 1.0 µM): 117% | residual activity ([22]; compound 10.0 µM): 109% | residual activity [24]: 97% | residual activity ([25]; compound 1.0 µM): 89% | residual activity ([25]; compound 10.0 µM): 76% | residual activity ([26]; compound 1.0 µM): 103% | residual activity ([26]; compound 10.0 µM): 110% | residual activity ([27]; compound 1.0 µM): 80% | residual activity ([27]; compound 10.0 µM): 90% | residual activity ([28]; compound 1.0 µM): 92% | residual activity ([28]; compound 10.0 µM): 112% | residual activity ([29]; compound 1.0 µM): 107% | residual activity ([29]; compound 10.0 µM): 89% | residual activity ([30]; compound 1.0 µM): 86% | residual activity ([30]; compound 10.0 µM): 91% | residual activity ([31]; compound 1.0 µM): 94% | residual activity ([31]; compound 10.0 µM): 85% | residual activity ([33]; compound 1.0 µM): 100% | residual activity ([33]; compound 10.0 µM): 106%
SMILES: O=C(O)c1cc(N=Nc2ccc(S(=O)(=O)Nc3ccccn3)cc2)ccc1O
